# Results from publication PMC1774582, “Choroid plexus epithelial monolayers – a cell culture model from porcine brain” (Cerebrospinal Fluid Research, 2006).
# Experiments:
# Mrp1 [1] = molecular target: Mrp1 (Sus scrofa, UniProt K9IVJ9); conditions: 2 μM FL-MTX, CPEC; direction taken from paragraph and Figure 10B
# [2] = test system: choroid plexus epithelial cells
# Experimental: (§1) To assess CSF secretion by cultured CPEC, cells were cultured on permeable, polyester six-well Transwell® filter plates coated with 5 μg/ml laminin for 13 to 15 DIC. […] Following a 1 h preincubation with CSFB, 1.0 ml 1.0 μM 67 kDa fluorescent-dextran (FITC-dextran) in CSFB was added to both apical and basolateral chambers and secreted CSF volume (in μl/cm^2) was calculated as a function of FITC-dextran concentration change.
# (§2) The permeability coefficient P of test compounds was calculated according to equation (2):
# (§3) P=dc/dt×Vacceptor/A×c0 (2) MathType@MTEF@5@5@+=feaafiart1ev1aaatCvAUfKttLearuWrP9MDH5MBPbIqV92AaeXatLxBI9gBaebbnrfifHhDYfgasaacH8akY=wiFfYdH8Gipec8Eeeu0xXdbba9frFj0=OqFfea0dXdd9vqai=hGuQ8kuc9pgc9s8qqaq=dirpe0xb9q8qiLsFr0=vr0=vr0dc8meaabaqaciaacaGaaeqabaqabeGadaaakeaacqWGqbaucqGH9aqpdaWcaaqaaiabdsgaKjabdogaJbqaaiabdsgaKjabdsha0baacqGHxdaTdaWcaaqaaiabdAfawnaaBaaaleaacqWGHbqycqWGJbWycqWGJbWycqWGLbqzcqWGWbaCcqWG0baDcqWGVbWBcqWGYbGCaeqaaaGcbaGaemyqaeKaey41aqRaem4yam2aaSbaaSqaaiabicdaWaqabaaaaOGaaCzcaiaaxMaadaqadaqaaiabikdaYaGaayjkaiaawMcaaaaa@4C1D@
# (§4) with dc/dt representing the change of the acceptor concentration over time, Vacceptor the acceptor volume, A the membrane surface area and c0 the initial donor concentration. Concentrations were assessed by analysis in a fluorescent plate reader (Ascent Fluoroscan) for fluorescent-labelled compounds.
# [3] = test system: choroid plexus epithelial cells; experiment: Permeability across choroid plexus epithelial cell (CPEC) monolayers on Transwell filters; conditions: apical versus basolateral direction
# Experimental: as §1, §2, §3, §4
# [4] = test system: intact choroid plexus tissue; conditions: intact choroid plexus tissue from guinea pig ref 47; cited from earlier work
# Mrp1 [5] = test system: Mrp1; parameters: method as in PMID 10675353; conditions: animals lacking Mrp1 ref 49; cited from earlier work
# Chain of Mrp1 (Sus scrofa, UniProt K9IVJ9) (K9IVJ9 1-1532): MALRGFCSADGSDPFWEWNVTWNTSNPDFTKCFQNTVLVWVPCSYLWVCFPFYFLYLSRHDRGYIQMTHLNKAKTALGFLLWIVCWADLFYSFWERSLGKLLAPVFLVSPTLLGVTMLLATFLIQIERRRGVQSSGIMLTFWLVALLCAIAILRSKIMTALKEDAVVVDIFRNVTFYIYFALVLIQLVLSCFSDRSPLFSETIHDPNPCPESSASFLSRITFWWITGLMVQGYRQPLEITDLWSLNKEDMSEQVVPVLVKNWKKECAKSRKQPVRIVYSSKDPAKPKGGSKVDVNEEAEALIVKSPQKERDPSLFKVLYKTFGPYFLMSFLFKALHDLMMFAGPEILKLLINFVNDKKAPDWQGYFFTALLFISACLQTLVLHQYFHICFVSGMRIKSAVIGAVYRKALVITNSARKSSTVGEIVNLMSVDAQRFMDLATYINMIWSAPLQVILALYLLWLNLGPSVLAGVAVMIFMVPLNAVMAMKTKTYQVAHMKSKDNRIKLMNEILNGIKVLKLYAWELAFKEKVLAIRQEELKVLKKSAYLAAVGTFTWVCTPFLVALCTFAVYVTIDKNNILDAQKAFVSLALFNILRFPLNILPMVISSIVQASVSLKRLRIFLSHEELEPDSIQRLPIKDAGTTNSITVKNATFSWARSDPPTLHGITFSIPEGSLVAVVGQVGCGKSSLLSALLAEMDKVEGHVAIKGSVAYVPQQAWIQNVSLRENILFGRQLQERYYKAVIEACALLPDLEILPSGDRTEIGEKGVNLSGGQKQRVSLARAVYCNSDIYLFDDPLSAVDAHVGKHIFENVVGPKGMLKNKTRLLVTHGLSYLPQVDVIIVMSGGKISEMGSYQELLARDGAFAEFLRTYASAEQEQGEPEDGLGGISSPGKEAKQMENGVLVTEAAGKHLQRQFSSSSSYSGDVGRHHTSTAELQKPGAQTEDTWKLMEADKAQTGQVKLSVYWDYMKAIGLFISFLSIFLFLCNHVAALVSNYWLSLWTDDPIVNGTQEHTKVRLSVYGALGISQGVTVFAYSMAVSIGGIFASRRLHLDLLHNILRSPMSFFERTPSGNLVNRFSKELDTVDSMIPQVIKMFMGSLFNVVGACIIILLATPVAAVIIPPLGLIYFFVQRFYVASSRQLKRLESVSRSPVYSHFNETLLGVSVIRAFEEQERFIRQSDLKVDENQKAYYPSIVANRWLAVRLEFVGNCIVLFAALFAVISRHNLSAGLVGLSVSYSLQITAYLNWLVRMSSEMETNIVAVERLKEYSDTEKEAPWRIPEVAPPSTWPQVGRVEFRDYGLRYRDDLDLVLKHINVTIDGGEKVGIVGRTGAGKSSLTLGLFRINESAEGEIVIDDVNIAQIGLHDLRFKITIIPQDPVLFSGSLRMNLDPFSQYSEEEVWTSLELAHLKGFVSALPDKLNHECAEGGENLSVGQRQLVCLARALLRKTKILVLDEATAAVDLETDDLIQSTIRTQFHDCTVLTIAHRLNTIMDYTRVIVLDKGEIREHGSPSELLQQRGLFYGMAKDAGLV
smiles,measurement,setting,value
Nc1ccc(C(=O)NCC(=O)O)cc1 [p-aminohippuric acid],effect on FL-MTX transport from the basolateral to the apical side,Mrp1 [1],did not significantly affect
CCCN(CCC)S(=O)(=O)c1ccc(C(=O)O)cc1 [probenecid],effect on FL-MTX transport from the basolateral to the apical side,Mrp1 [1],did not significantly affect
O=C(O)c1ccc2c(c1)C(=O)OC21c2ccc(O)cc2Oc2cc(O)ccc21 [5-carboxyfluorescein],Papp (apparent permeability coefficient),[2],4.5e-05 cm/s
same,Papp with opened tight junctions versus intact monolayer,[2],nearly doubling
COC(=O)c1ccccc1-c1c2ccc(=N)cc-2oc2cc(N)ccc12 [rhodamine 123],preferred / directed transport across CP epithelial cells,[3],no directed transport
CC[C@]1(O)C[C@@H]2CN(CCc3c([nH]c4ccccc34)[C@@](C(=O)OC)(c3cc4c(cc3OC)N(C)[C@H]3[C@@](O)(C(=O)OC)[C@H](OC(C)=O)[C@]5(CC)C=CCN6CC[C@]43[C@@H]65)C2)C1 [vinblastine],influence on uptake of the Pgp substrate ritonavir,[4],not influenced
COc1cc([C@@H]2c3cc4c(cc3[C@@H](O[C@@H]3O[C@@H]5CO[C@@H](C)O[C@H]5[C@H](O)[C@H]3O)[C@H]3COC(=O)[C@H]23)OCO4)cc(OC)c1O [etoposide],accumulation in CSF,Mrp1 [5],increased accumulation
